Test results taken from ChEMBL document CHEMBL4507284, “Data for DCP probe BI-1230” (2021).

Experiments:
[1] = molecular target: Serine/threonine-protein kinase 26 (Homo sapiens) (UniProt Q9P289); conditions: Compound concentration 1000.0 nM
[2] = molecular target: Mitogen-activated protein kinase kinase kinase kinase 2 (Homo sapiens) (UniProt Q12851); conditions: Compound concentration 1000.0 nM
[3] = tested on: Mast/stem cell growth factor receptor Kit (Homo sapiens), P10721 [V559D,T670I]; conditions: Compound concentration 1000.0 nM
[4] = molecular target: Serine/threonine-protein kinase 32C (Homo sapiens) (UniProt Q86UX6); conditions: Compound concentration 1000.0 nM
[5] = molecular target: Homeodomain-interacting protein kinase 2 (Homo sapiens) (UniProt Q9H2X6); conditions: Compound concentration 1000.0 nM
[6] = molecular target: Cyclin-dependent kinase 9 (Homo sapiens) (UniProt P50750); conditions: Compound concentration 1000.0 nM
[7] = molecular target: Serine/threonine-protein kinase DCLK3 (Homo sapiens) (UniProt Q9C098); conditions: Compound concentration 1000.0 nM
[8] = molecular target: Cyclin-dependent kinase 11B (Homo sapiens) (UniProt P21127); conditions: Compound concentration 1000.0 nM
[9] = molecular target: Ribosomal protein S6 kinase alpha-3 (Homo sapiens) (UniProt P51812); conditions: Compound concentration 1000.0 nM
[10] = molecular target: Fibroblast growth factor receptor 3 (Homo sapiens) (UniProt P22607); conditions: Compound concentration 1000.0 nM
[11] = molecular target: Serine/threonine-protein kinase Nek2 (Homo sapiens) (UniProt P51955); conditions: Compound concentration 1000.0 nM
[12] = molecular target: Serine/threonine-protein kinase N1 (Homo sapiens) (UniProt Q16512); conditions: Compound concentration 1000.0 nM
[13] = molecular target: Receptor-interacting serine/threonine-protein kinase 2 (Homo sapiens) (UniProt O43353); conditions: Compound concentration 1000.0 nM
[14] = molecular target: Phosphatidylinositol 4-phosphate 3-kinase C2 domain-containing subunit beta (Homo sapiens) (UniProt O00750); conditions: Compound concentration 1000.0 nM
[15] = molecular target: Serine/threonine-protein kinase 35 (Homo sapiens) (UniProt Q8TDR2); conditions: Compound concentration 1000.0 nM
[16] = molecular target: Serine/threonine-protein kinase Nek11 (Homo sapiens) (UniProt Q8NG66); conditions: Compound concentration 1000.0 nM
[17] = tested on: eIF-2-alpha kinase GCN2 (Homo sapiens), Q9P2K8 [S808G]; conditions: Compound concentration 1000.0 nM
[18] = tested on: Epidermal growth factor receptor (Homo sapiens), P00533 [L858R,T790M]; conditions: Compound concentration 1000.0 nM
[19] = molecular target: G protein-coupled receptor kinase 3 (Homo sapiens) (UniProt P35626); conditions: Compound concentration 1000.0 nM
[20] = molecular target: Serine/threonine-protein kinase Nek1 (Homo sapiens) (UniProt Q96PY6); conditions: Compound concentration 1000.0 nM
[21] = molecular target: Mitogen-activated protein kinase 3 (Homo sapiens) (UniProt P27361); conditions: Compound concentration 1000.0 nM
[22] = molecular target: MAP/microtubule affinity-regulating kinase 4 (Homo sapiens) (UniProt Q96L34); conditions: Compound concentration 1000.0 nM
[23] = molecular target: Sigma non-opioid intracellular receptor 1 (Homo sapiens) (UniProt Q99720); conditions: Compound concentration 10.0 uM
[24] = molecular target: Dual specificity mitogen-activated protein kinase kinase 7 (Homo sapiens) (UniProt O14733); conditions: Compound concentration 1000.0 nM
[25] = molecular target: 5-hydroxytryptamine receptor 2A (Homo sapiens) (UniProt P28223); conditions: Compound concentration 10.0 uM
[26] = tested on: Phosphatidylinositol 4,5-bisphosphate 3-kinase catalytic subunit alpha isoform (Homo sapiens), P42336 [C420R]; conditions: Compound concentration 1000.0 nM
[27] = molecular target: Tyrosine-protein kinase Lck (Homo sapiens) (UniProt P06239); conditions: Compound concentration 1000.0 nM
[28] = molecular target: Serine/threonine-protein kinase PLK3 (Homo sapiens) (UniProt Q9H4B4); conditions: Compound concentration 1000.0 nM
[29] = molecular target: Dual serine/threonine and tyrosine protein kinase (Homo sapiens) (UniProt Q6XUX3); conditions: Compound concentration 1000.0 nM
[30] = molecular target: Dual specificity tyrosine-phosphorylation-regulated kinase 2 (Homo sapiens) (UniProt Q92630); conditions: Compound concentration 1000.0 nM
[31] = molecular target: Death-associated protein kinase 1 (Homo sapiens) (UniProt P53355); conditions: Compound concentration 1000.0 nM
[32] = molecular target: Mast/stem cell growth factor receptor Kit (Homo sapiens) (UniProt P10721); conditions: Compound concentration 1000.0 nM
[33] = tested on: Proto-oncogene tyrosine-protein kinase receptor Ret (Homo sapiens), P07949 [V804L]; conditions: Compound concentration 1000.0 nM
[34] = molecular target: Mitogen-activated protein kinase kinase kinase 1 (Homo sapiens) (UniProt Q13233); conditions: Compound concentration 1000.0 nM
[35] = molecular target: Phosphatidylinositol 4-phosphate 5-kinase type-1 gamma (Homo sapiens) (UniProt O60331); conditions: Compound concentration 1000.0 nM
[36] = molecular target: Mitogen-activated protein kinase 15 (Homo sapiens) (UniProt Q8TD08); conditions: Compound concentration 1000.0 nM
[37] = molecular target: Megakaryocyte-associated tyrosine-protein kinase (Homo sapiens) (UniProt P42679); conditions: Compound concentration 1000.0 nM
[38] = molecular target: 5-hydroxytryptamine receptor 1B (Homo sapiens) (UniProt P28222); conditions: Compound concentration 10.0 uM
[39] = molecular target: Inhibitor of nuclear factor kappa-B kinase subunit alpha (Homo sapiens) (UniProt O15111); conditions: Compound concentration 1000.0 nM
[40] = molecular target: Ribosomal protein S6 kinase alpha-1 (Homo sapiens) (UniProt Q15418); conditions: Compound concentration 1000.0 nM
[41] = molecular target: Serine/threonine-protein kinase 3 (Homo sapiens) (UniProt Q13188); conditions: Compound concentration 1000.0 nM
[42] = molecular target: Serine/threonine-protein kinase 38 (Homo sapiens) (UniProt Q15208); conditions: Compound concentration 1000.0 nM
[43] = molecular target: Serine/threonine-protein kinase/endoribonuclease IRE1 (Homo sapiens) (UniProt O75460); conditions: Compound concentration 1000.0 nM
[44] = molecular target: Tyrosine-protein kinase receptor TYRO3 (Homo sapiens) (UniProt Q06418); conditions: Compound concentration 1000.0 nM
[45] = tested on: Hepatocyte growth factor receptor (Homo sapiens), P08581 [Y1235D]; conditions: Compound concentration 1000.0 nM

Serine/threonine-protein kinase Nek1 (Homo sapiens), sequence (Q96PY6 whole entry): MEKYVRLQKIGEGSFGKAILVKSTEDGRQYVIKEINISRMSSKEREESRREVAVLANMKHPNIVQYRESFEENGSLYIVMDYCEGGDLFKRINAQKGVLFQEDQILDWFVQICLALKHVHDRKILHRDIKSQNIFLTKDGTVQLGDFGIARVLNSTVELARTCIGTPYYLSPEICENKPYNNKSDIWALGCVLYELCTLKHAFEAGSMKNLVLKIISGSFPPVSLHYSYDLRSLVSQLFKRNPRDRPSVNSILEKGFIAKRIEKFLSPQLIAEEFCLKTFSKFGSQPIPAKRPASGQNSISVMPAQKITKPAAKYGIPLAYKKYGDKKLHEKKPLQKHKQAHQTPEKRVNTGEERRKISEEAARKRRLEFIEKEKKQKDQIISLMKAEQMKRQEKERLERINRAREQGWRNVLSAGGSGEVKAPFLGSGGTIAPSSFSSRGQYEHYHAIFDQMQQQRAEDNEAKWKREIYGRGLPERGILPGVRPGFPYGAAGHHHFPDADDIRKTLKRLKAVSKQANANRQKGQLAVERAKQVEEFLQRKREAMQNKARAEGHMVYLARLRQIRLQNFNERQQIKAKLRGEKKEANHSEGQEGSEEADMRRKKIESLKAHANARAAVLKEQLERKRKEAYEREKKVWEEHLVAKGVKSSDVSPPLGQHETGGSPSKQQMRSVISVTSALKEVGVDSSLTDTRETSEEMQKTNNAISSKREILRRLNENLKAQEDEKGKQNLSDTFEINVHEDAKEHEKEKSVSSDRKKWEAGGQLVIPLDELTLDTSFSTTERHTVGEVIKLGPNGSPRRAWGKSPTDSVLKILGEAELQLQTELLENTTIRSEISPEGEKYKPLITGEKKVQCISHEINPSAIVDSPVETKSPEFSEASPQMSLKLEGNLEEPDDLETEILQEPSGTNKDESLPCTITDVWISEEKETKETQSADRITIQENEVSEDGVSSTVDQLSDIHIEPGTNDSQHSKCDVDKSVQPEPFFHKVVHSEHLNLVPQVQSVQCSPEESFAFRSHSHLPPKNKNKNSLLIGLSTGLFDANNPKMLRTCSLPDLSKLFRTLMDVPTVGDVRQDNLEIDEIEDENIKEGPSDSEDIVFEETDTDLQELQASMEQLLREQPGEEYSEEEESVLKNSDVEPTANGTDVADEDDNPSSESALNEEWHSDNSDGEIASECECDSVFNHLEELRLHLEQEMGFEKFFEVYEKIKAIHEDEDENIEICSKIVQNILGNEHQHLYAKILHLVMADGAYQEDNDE
Cyclin-dependent kinase 11B (Homo sapiens), sequence (P21127 whole entry): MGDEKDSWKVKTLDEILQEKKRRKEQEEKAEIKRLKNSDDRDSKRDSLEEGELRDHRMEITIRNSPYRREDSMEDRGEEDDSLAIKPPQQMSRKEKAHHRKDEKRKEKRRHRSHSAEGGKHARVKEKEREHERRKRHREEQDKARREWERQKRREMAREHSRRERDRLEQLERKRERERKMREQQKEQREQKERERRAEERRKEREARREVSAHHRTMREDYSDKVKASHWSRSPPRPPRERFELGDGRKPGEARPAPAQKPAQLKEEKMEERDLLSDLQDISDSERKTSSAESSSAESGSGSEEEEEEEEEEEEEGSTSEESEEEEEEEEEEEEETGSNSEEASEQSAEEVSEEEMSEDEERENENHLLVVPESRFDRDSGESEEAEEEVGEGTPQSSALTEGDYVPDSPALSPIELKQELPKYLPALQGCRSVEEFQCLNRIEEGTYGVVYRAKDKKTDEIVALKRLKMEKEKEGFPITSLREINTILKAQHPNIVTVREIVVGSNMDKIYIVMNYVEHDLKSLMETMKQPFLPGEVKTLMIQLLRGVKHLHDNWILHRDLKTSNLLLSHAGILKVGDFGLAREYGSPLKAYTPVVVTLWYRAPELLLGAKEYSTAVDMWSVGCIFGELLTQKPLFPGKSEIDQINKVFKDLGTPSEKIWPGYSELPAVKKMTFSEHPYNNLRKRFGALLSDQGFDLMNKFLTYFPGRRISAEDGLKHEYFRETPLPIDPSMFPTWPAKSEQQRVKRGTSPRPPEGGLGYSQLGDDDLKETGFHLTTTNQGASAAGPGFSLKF
Sigma non-opioid intracellular receptor 1 (Homo sapiens), sequence (Q99720 whole entry): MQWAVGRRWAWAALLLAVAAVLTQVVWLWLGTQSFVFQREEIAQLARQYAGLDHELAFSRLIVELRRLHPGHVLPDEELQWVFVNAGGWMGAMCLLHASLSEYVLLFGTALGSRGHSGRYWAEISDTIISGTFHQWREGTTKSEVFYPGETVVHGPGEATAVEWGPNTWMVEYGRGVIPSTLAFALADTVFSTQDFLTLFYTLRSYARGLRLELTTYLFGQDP
Serine/threonine-protein kinase N1 (Homo sapiens), sequence (Q16512 2-942 limits assumed): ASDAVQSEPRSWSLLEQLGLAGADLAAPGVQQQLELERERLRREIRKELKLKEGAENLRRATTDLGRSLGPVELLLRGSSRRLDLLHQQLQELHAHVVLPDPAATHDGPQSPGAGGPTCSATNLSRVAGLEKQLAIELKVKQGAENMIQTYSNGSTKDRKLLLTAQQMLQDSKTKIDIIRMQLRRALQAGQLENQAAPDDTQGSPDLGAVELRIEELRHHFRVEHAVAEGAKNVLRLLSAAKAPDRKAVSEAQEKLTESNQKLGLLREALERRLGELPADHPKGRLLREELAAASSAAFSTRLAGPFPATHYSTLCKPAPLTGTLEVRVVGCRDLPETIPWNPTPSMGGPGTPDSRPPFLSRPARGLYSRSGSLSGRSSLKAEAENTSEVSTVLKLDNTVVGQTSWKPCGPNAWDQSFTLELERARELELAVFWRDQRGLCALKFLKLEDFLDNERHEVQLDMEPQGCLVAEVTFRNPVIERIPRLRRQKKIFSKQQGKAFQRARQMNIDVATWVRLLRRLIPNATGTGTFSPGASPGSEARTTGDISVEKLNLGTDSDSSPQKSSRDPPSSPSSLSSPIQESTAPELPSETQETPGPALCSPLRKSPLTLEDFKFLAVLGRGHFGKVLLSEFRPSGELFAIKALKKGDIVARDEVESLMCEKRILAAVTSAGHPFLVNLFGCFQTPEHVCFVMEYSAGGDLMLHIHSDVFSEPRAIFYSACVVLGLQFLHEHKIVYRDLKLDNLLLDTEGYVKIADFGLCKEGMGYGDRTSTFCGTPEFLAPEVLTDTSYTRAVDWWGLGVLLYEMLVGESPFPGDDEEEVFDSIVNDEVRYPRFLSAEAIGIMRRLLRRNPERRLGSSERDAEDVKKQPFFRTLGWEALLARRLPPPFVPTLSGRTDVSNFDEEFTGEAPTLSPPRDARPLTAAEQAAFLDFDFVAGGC
Tyrosine-protein kinase receptor TYRO3 (Homo sapiens), sequence (Q06418 whole entry): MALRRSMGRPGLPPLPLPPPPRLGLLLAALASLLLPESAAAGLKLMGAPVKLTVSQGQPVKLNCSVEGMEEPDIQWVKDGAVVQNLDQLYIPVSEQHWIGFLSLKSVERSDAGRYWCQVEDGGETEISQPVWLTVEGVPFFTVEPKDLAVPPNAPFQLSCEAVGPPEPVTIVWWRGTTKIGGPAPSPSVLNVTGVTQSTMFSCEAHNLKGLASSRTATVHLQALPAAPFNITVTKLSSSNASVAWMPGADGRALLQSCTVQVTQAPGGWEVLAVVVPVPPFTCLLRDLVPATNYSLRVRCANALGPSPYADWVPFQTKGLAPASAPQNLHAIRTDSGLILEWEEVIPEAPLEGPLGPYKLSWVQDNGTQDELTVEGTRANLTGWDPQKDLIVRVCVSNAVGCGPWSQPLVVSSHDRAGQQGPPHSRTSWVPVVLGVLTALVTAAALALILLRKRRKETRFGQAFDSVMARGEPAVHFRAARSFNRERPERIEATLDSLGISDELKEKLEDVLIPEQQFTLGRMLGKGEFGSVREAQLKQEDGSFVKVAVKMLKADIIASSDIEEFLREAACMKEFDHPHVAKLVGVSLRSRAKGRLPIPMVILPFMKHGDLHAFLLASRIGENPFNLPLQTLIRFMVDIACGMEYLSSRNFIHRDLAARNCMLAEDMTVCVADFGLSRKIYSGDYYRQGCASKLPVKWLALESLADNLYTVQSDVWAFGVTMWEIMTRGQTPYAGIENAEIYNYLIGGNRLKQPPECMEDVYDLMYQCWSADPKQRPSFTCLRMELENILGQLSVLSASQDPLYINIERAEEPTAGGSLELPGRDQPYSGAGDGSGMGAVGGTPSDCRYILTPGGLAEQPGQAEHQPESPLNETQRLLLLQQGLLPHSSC
Mitogen-activated protein kinase 15 (Homo sapiens), sequence (Q8TD08 whole entry): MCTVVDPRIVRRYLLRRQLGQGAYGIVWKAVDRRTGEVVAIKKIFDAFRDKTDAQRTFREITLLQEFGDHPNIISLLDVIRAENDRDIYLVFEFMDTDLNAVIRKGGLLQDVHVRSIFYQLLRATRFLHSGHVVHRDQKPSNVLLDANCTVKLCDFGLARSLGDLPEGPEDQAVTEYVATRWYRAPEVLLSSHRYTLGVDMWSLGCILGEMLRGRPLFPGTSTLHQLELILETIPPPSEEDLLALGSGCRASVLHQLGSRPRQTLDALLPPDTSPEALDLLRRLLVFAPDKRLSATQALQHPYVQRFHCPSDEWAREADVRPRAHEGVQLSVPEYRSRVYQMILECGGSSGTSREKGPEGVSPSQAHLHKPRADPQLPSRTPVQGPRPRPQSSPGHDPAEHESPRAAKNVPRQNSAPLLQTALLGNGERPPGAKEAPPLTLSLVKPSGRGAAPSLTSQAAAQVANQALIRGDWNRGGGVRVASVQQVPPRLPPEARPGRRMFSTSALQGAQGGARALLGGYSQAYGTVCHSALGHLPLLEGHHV
Dual specificity mitogen-activated protein kinase kinase 7 (Homo sapiens), sequence (O14733 whole entry): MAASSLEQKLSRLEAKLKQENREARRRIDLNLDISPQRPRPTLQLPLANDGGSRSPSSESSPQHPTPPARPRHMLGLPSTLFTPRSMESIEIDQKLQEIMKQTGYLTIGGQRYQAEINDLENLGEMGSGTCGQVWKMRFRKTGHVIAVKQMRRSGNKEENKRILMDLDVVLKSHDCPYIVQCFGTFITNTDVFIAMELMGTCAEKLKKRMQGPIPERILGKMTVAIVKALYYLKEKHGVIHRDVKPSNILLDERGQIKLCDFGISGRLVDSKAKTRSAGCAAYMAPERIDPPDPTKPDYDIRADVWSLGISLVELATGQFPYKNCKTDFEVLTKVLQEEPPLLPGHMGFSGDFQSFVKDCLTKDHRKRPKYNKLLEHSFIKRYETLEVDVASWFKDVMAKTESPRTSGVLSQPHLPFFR

COc1ccc2c(O[C@@H]3C[C@H]4C(=O)N[C@]5(C(=O)O)CC5/C=C\CCCCC[C@H](NC(=O)OC5CCCC5)C(=O)N4C3)cc(-c3csc(NC(=O)C(C)C)n3)nc2c1C (stereo not given in full) [BI 1230]
residual activity [1]: 95%
residual activity [2]: 100%
residual activity [3]: 76%
residual activity [4]: 63%
residual activity [5]: 68%
residual activity [6]: 83%
residual activity [7]: 96%
residual activity [8]: 99%
residual activity [9]: 100%
residual activity [10]: 100%
residual activity [11]: 94%
residual activity [12]: 100%
residual activity [13]: 100%
residual activity [14]: 82%
residual activity [15]: 100%
residual activity [16]: 84%
residual activity [17]: 100%
residual activity [18]: 100%
residual activity [19]: 99%
residual activity [20]: 100%
residual activity [21]: 94%
residual activity [22]: 99%
inhibition [23]: 42.1%
residual activity [24]: 81%
inhibition [25]: 11.4%
residual activity [26]: 100%
residual activity [27]: 100%
residual activity [28]: 79%
residual activity [29]: 68%
residual activity [30]: 77%
residual activity [31]: 100%
residual activity [32]: 72%
residual activity [33]: 95%
residual activity [34]: 82%
residual activity [35]: 100%
residual activity [36]: 100%
residual activity [37]: 50%
inhibition [38]: 7.71%
residual activity [39]: 92%
residual activity [40]: 74%
residual activity [41]: 86%
residual activity [42]: 50%
residual activity [43]: 79%
residual activity [44]: 100%
residual activity [45]: 100%

O=C(N[C@H]1CCCCC/C=C\C2C[C@@]2(C(=O)O)NC(=O)[C@@H]2C[C@@H](Oc3ccncc3)CN2C1=O)OC1CCCC1 (stereo not given in full) [BI 1675]
residual activity [1]: 97%
residual activity [2]: 100%
residual activity [3]: 100%
residual activity [4]: 100%
residual activity [5]: 100%
residual activity [6]: 91%
residual activity [7]: 100%
residual activity [8]: 100%
residual activity [9]: 100%
residual activity [10]: 88%
residual activity [11]: 94%
residual activity [12]: 100%
residual activity [13]: 100%
residual activity [14]: 84%
residual activity [15]: 100%
residual activity [16]: 100%
residual activity [17]: 100%
residual activity [18]: 98%
residual activity [19]: 100%
residual activity [20]: 100%
residual activity [21]: 69%
residual activity [22]: 100%
inhibition [23]: 11.1%
residual activity [24]: 91%
inhibition [25]: -7.7%
residual activity [26]: 100%
residual activity [27]: 100%
residual activity [28]: 100%
residual activity [29]: 100%
residual activity [30]: 66%
residual activity [31]: 83%
residual activity [32]: 84%
residual activity [33]: 86%
residual activity [34]: 84%
residual activity [35]: 100%
residual activity [36]: 100%
residual activity [37]: 41%
inhibition [38]: -3.04%
residual activity [39]: 100%
residual activity [40]: 100%
residual activity [41]: 76%
residual activity [42]: 97%
residual activity [43]: 80%
residual activity [44]: 100%
residual activity [45]: 81%
